Data taken from US20050095219A1, “Compositions for promoting vaginal cell proliferation and maturation” (priority 2003, published 2005).

Tests used:
[1] = tested on: Candida albicans, ATCC 10231; experiment: Candida albicans attachment to A431 cells; format: cell-based
Method: A culture of Candida albicans, ATCC 10231, was started in peptone/glucose culture medium and incubated at 37° C. with shaking for three days before the experiment. A monolayer of A431 cells, ATCC CRL-1555, was grown on a 24-well tissue culture plate until confluent. Hyaluronic acid at concentration of 1 mg/ml or 5 mg/ml in PBS was added to the wells (1.2 ml/well), and the plates were incubated for 30 minutes at 35° C. A control plate of confluent A431 cells was also prepared that received 1.2 ml/well PBS and no hyaluronic acid. After the 30 min incubation, 0.5 ml of solution was removed from the wells and 0.5 ml of yeast suspension (1×10^6 cfu/ml) was added. After 2 hours of incubation, the supernatant was removed from the wells and the wells were rinsed thoroughly with PBS to remove all non-bound yeast. Then, 0.2 ml of 0.25% trypsin/EDTA was added to each well and the plates were incubated at 35° C. for 15 min. Trypsinization was stopped by adding 1 ml of 10% fetal bovine serum in culture medium. The trypsinized cell/yeast suspension was centrifuged and re-suspended in 1 ml of the medium. […] The number of colonies on each plate was counted and the number of yeast attached to the cells in each well was calculated.
(§1) All the data are expressed as mean ± SEM and were analyzed by one-way Analysis of Variance (ANOVA) followed by a Tukey-Kramer Multiple Comparisons Test. […]

E. coli, ATCC 53505 = experiment: Effect on E. coli growth (optical density at 540 nm); format: cell-based; settings: 1 mg/ml or 5 mg/ml, 1, 2 and 3 hours
Method: To test whether hyaluronic acid could influence cellular growth, E. coli, ATCC 53505 cells were cultured overnight in trypticase soy broth. The culture was then diluted to an optical density of 0.1 and hyaluronic acid (1 mg/ml or 5 mg/ml) in PBS was incubated with the E. coli suspension. A control comprising a suspension E. coli treated with PBS was also prepared. The test and control cells were incubated at 37° C. with shaking and the optical density of the bacterial suspensions at 540 nm was measured at 1, 2 and 3 hours after addition of the hyaluronic acid or PBS. All the data are expressed as mean ± SEM and were analyzed by one-way Analysis of Variance (ANOVA) followed by a Tukey-Kramer Multiple Comparisons Test. Differences were considered significant at the level of p<0.05.

[2] = tested on: E. coli with P family pili, ATCC 53505; experiment: E. coli adhesion test on A431 cells; format: cell-based
Method: Cultured A431 cells were used as a model human epithelial cell line. A431 cells were obtained from American Cell Type Culture Collection, catalog # CRL-1555. A monolayer of A431 cells was grown on a 24-well tissue culture plate until confluent. E. coli with P family pili, ATCC 53505, were cultured in trypticase soy broth (TSB) overnight. Phosphate buffered saline (PBS, control) or hyaluronic acid (Sigma, catalog # H1876) solutions at a concentration of 1 mg/ml or 5 mg/ml in PBS were added to the A431 cell layers, using a volume of 1.2 ml/well. For comparison, a control plate was set up and treated identically as the test plate, except that the wells in the control plate were given PBS without hyaluronic acid. After incubation for 30 minutes at 37° C., 0.5 ml of solution was removed from the wells and 0.5 ml of the bacteria suspension was added. […] After 60 minutes, the supernatant in each well was removed and the wells were rinsed thoroughly with PBS to remove all non-bound bacteria. Trypticase soy broth was then added to wells, and the system was incubated at 37° C. with shaking at 100 rpm/min for 2 hours. Bacterial concentration was measured by the detection of optical density of bacterial suspension at 540 nm.
as §1

[3] = tested on: Primary vaginal epithelial cells; experiment: Glycogen production, periodic acid Schiff (PAS) assay; format: cell-based, human; settings: 0.1 mg/mL, 5 days treatment, p<0.05 vs control
Method: Primary vaginal epithelial cells were cultured in 96-well plates. Five samples were tested for each group. Treatment was for 5 days with culture medium solutions (PrEBM, Clonetics CC-3165) without (the control group) and with 0.1 mg/mL hyaluronic acid (Sigma H-1751). The media were changed every other day. At the end the treatment, the media was removed, and the well was washed twice with HBSS.
Glycogen tests were performed using a periodic acid Schiff (PAS) assay as described below. Before the test, cells were fixed with a 10 vol % Formalin/ethanol solution for 1 hour at room temperature, followed by continuous rinsing with deionized (DI) water for 1 minute. Harleco® PAS Aassay Kit (from EM Science 64945/43) was used for glycogen detection. The basic principle is that the hydroxy groups on the glycogen units were first oxidized into aldehyde groups by periodic acid, and the aldehyde groups reacted with Schiff's agent to produce a red colorant. The specific assay operations were all done at room temperature as follows: • 1. Periodic acid reagent was added to the well/chamber and allowed to stand for 10 minutes). • 2. Samples were continuously rinsed in water for one minute. • 3. Schiff's reagent was added and allowed to stand for 15 minutes. • 4. […] The numbers of glycogen-stained positive cells were manually counted under microscope.

[4] = tested on: Normal human vaginal epithelial cells (NHVE 5164); experiment: Vaginal cell proliferation (CellTiter 96 Aqueous One Solution); format: cell-based; settings: complete medium, 72 hours
Method: Normal human vaginal epithelial cells from Clonetics (NHVE 5164) were subcultured into 96 well plates at 37° C., 5% CO2. Cells were cultured with basal PrEBM (Clonetics CC 3165) supplemented with cell growth medium bulletKit (Clonetics, cc-3166). Cells were treated with HLA having different molecular weights (MW), HLA1 (Sigma #H1751, intrinsic viscosity=100), HLA2 (MW, 150-500 k, Carbomer #8-01250) and HLA3 (a disaccharide, MW 405, Sigma #H9649). HLA was dissolved in either basal culture medium or basal medium supplemented with growth factors (complete medium) at concentration of 100, 10 or 1 μg/ml. Control group cells were treated with culture medium only. Each treatment group included 6 samples. The media for the different samples were changed 48 hours later and cell proliferation was examined at 72 hours by using CellTiter 96 Aqueous One Solution from Promega (#TB245). Twenty μl of the reagent was added to each well. The plates were returned to cell culture incubator for 3 hours. The absorbance in each well was measured at 490 nm with a microtiter reader.

hyaluronic acid
number of Candida albicans adhering to A431 cells ([1]; 1 mg/ml in PBS): the effect was not so significant | number of Candida albicans adhering to A431 cells ([1]; 5 mg/ml in PBS): significantly inhibited | E. coli growth (E. coli, ATCC 53505): neither of the hyaluronic acid solutions had any effect on bacterial growth | number of E. coli attached to A431 cells ([2]; 1 mg/ml in PBS): lesser effect on E. coli adhesion | number of E. coli attached to A431 cells ([2]; 5 mg/ml in PBS): significantly inhibited | glycogen production (numbers of glycogen-stained positive cells) [3]: increase in glycogen production was statistically significant

hyaluronic acid [HLA1]
vaginal cell proliferation compared to control group ([4]; 100 μg/ml): significantly promoted vaginal cell proliferation | vaginal cell proliferation compared to control group ([4]; low concentrations 10 and 1 μg/ml): no significant effect on cell proliferation

hyaluronic acid [HLA2]
vaginal cell proliferation compared to control group ([4]; any of the three concentrations tested (100, 10, 1 μg/ml)): no statistically significant effect
